We go through 29 molecules from US9598423B2 (BRISTOL-MYERS SQUIBB COMPANY, priority 2013, dated 2017).

Sequence of CK1ε (P49674 whole entry): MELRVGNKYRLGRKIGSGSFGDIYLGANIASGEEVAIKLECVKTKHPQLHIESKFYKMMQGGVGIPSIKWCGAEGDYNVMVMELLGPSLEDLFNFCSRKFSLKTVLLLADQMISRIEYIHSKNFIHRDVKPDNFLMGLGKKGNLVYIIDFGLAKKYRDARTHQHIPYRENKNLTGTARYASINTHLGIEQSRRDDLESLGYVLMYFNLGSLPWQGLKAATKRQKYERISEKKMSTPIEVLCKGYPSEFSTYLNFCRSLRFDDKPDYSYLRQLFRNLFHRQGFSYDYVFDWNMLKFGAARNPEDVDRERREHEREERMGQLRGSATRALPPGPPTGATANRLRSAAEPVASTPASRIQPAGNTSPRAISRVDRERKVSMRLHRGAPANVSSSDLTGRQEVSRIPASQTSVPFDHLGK
Sequence of CK1δ (P48730 whole entry): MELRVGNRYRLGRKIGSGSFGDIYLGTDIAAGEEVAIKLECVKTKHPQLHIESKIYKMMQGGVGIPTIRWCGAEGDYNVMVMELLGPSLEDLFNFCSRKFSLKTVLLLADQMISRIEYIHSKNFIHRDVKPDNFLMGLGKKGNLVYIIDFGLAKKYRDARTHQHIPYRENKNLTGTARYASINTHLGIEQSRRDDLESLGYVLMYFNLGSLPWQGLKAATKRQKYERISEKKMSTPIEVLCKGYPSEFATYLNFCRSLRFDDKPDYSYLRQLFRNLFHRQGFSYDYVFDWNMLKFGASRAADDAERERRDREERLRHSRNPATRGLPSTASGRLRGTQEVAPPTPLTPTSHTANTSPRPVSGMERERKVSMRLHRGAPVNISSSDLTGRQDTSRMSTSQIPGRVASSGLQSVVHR

The first experiment has as its target CK1δ (Homo sapiens (Human), UniProt P48730). The experiment can be described thus: CK1δ kinase assay (Caliper LABCHIP electrophoretic separation of fluoresceinated peptide substrate and product). To be noted: 200 pM CK1δ, 50 μM ATP, 1.5 μM peptide substrate, 22 hours at room temperature; read-out: CK1δ (IC50). It is filed as biochemical. How it is done: (§1) CK1ε and CK1δ Kinase Assays
(§2) The kinase assay was performed in V-bottom 384-well plates. […] The reaction was incubated at room temperature for 22 hours and terminated by adding 45 μl of 35 mM EDTA to each sample. The reaction mixture was analyzed on the Caliper LABCHIP®3000 (Caliper, Hopkinton, Mass.) by electrophoretic separation of the unphosphorylated substrate and phosphorylated product. […] Compounds were dissolved at 10 mM in dimethylsulfoxide (DMSO) and evaluated at eleven concentrations. IC50 values were derived by non-linear regression analysis.
For `NC(=O)c1c(-c2ccc(F)cc2)nn2c1CN(C(=O)NC1CCCCC1)CC2` [Compound 3, N^5-Cyclohexyl-2-(4-fluorophenyl)-6,7-dihydropyrazolo[1,5-a]pyrazine-3,5(4H)-dicarboxamide], the IC50 (in general, the concentration at which inhibition is half-maximal) lay in the range of 0.01 to 10 nM.
On the same count and under the same terms, with `CC(C)(NC(=O)N1CCn2nc(-c3cccc(F)c3)c(C(N)=O)c2C1)c1ccc(F)cc1` [Compound 17, 2-(3-Fluorophenyl)-N^5-(2-(4-fluorophenyl)propan-2-yl)-6,7-dihydropyrazolo[1,5-a]pyrazine-3,5(4H)-dicarboxamide] the figure was 0.01 to 10 nM; with `CC(C)(NC(=O)N1CCn2nc(-c3cccc(F)c3)c(C(N)=O)c2C1)c1ccccc1` [Compound 25, 2-(3-Fluorophenyl)-N^5-(2-phenylpropan-2-yl)-6,7-dihydropyrazolo[1,5-a]pyrazine-3,5(4H)-dicarboxamide], 0.01 to 10 nM; with `NC(=O)c1c(-c2cccc(F)c2)nn2c1CN(C(=O)Nc1ccc(F)c(F)c1)CC2` [Compound 29, N^5-(3,4-Difluorophenyl)-2-(3-fluorophenyl)-6,7-dihydropyrazolo[1,5-a]pyrazine-3,5(4H)-dicarboxamide], 0.01 to 10 nM.
Same read-out and setting: under `NC(=O)c1c(-c2cccc(F)c2)nn2c1CN(C(=O)Nc1cc(Cl)ccc1F)CC2` [Compound 33, N^5-(5-Chloro-2-fluorophenyl)-2-(3-fluorophenyl)-6,7-dihydropyrazolo[1,5-a]pyrazine-3,5(4H)-dicarboxamide] stands 0.01 to 10 nM; under `COc1ccc(NC(=O)N2CCn3nc(-c4cccc(F)c4)c(C(N)=O)c3C2)cc1OC` [Compound 66, N^5-(3,4-Dimethoxyphenyl)-2-(3-fluorophenyl)-6,7-dihydropyrazolo[1,5-a]pyrazine-3,5(4H)-dicarboxamide], 0.01 to 10 nM.

The next experiment concerns the target CK1ε (Homo sapiens (Human), UniProt P49674). In words: CK1ε kinase assay (Caliper LABCHIP electrophoretic separation of fluoresceinated peptide substrate and product). It is filed as biochemical. To be noted: 200 pM CK1ε, 50 μM ATP, 1.5 μM peptide substrate, 22 hours at room temperature; read-out: CK1ε (IC50). As to the method: as §1, §2
On to `N#Cc1ccc(NC(=O)N2Cc3c(C(N)=O)c(-c4ccc(F)c(Cl)c4)nn3C(CF)C2)cc1Cl` (single isomer, unassigned) [Compound A15, N^5-(3-Chloro-4-cyanophenyl)-2-(3-chloro-4-fluorophenyl)-7-(fluoromethyl)-6,7-dihydropyrazolo[1,5-a]pyrazine-3,5(4H)-dicarboxamide], for which the IC50 is 0.01 to 10 nM.
Still for that read-out and setting: under `NC(=O)c1c(-c2cccc(F)c2)nn2c1CN(C(=O)NC13C[C@@H]4CC1C[C@@H](C4)C3)CC2` [Compound 23, 2-(3-Fluorophenyl)-N^5-((2R,5S)-octahydro-2,5-methanopentalen-6a-yl)-6,7-dihydropyrazolo[1,5-a]pyrazine-3,5(4H)-dicarboxamide] stands 0.01 to 10 nM; under `Cc1cc(C)cc(-c2nn3c(c2C(N)=O)CN(C(=O)NC(C)(C)C)CC3)c1` [Compound 128, N^5-(tert-Butyl)-2-(3,5-dimethylphenyl)-6,7-dihydropyrazolo[1,5-a]pyrazine-3,5(4H)-dicarboxamide], 0.01 to 10 nM.
The same measure, in the same setting: under `NC(=O)c1c(-c2ccc(F)c(Cl)c2)nn2c1CN(C(=O)Nc1ccc3ccncc3c1)CC2` [Compound 196, 2-(3-Chloro-4-fluorophenyl)-N^5-(isoquinolin-7-yl)-6,7-dihydropyrazolo[1,5-a] pyrazine-3,5(4H)-dicarboxamide] stands 0.01 to 10 nM.
As for `Cc1cc(-c2nn3c(c2C(N)=O)CN(C(=O)Nc2ccc(C#N)c(C)c2)CC3)ccc1F` [Compound 239, N^5-(4-Cyano-3-methylphenyl)-2-(4-fluoro-3-methylphenyl)-6,7-dihydropyrazolo[1,5-a]pyrazine-3,5(4H)-dicarboxamide], the IC50 was in the range of 0.01 to 10 nM.
As for `N#Cc1ccc(NC(=O)N2CCn3nc(-c4ccc(C5CC5)c(Cl)c4)c(C(N)=O)c3C2)cc1` [Compound 258, 2-(3-Chloro-4-cyclopropylphenyl)-N^5-(4-cyanophenyl)-6,7-dihydropyrazolo[1,5-a]pyrazine-3,5(4H)-dicarboxamide], the concentration for half-maximal inhibition (IC50) is 0.01 to 10 nM.
Take `CN(C)c1cc(Cl)cc(-c2nn3c(c2C(N)=O)CN(C(=O)Nc2ccc(C#N)cc2)CC3)c1` [Compound 265, 2-(3-Chloro-5-(dimethylamino)phenyl)-N^5-(4-cyanophenyl)-6,7-dihydropyrazolo[1,5-a]pyrazine-3,5(4H)-dicarboxamide]: the half-maximal inhibitory concentration (IC50) lay within 0.01 to 10 nM.
On the same count and under the same terms, with `Cc1cc(NC(=O)N2CCn3nc(-c4cc(Cl)cc(N(C)C)c4)c(C(N)=O)c3C2)ccc1C#N` [Compound 267, 2-(3-Chloro-5-(dimethylamino)phenyl)-N^5-(4-cyano-3-methylphenyl)-6,7-dihydropyrazolo[1,5-a] pyrazine-3,5(4H)-dicarboxamide] the figure was 0.01 to 10 nM; with `CN(C)c1cc(Cl)cc(-c2nn3c(c2C(N)=O)CN(C(=O)Nc2ccc(C#N)c(Cl)c2)CC3)c1` [Compound 268, N^5-(3-Chloro-4-cyanophenyl)-2-(3-chloro-5-(dimethyl-amino)phenyl)-6,7-dihydropyrazolo[1,5-a] pyrazine-3,5(4H)-dicarboxamide], 0.01 to 10 nM.
Same read-out and setting: with `CN(C)c1cc(Cl)cc(-c2nn3c(c2C(N)=O)CN(C(=O)Nc2ccc(C#N)c(F)c2)CC3)c1` [Compound 269, 2-(3-Chloro-5-(dimethylamino)phenyl)-N^5-(4-cyano-3-fluorophenyl)-6,7-dihydropyrazolo[1,5-a] pyrazine-3,5(4H)-dicarboxamide] the figure was 0.01 to 10 nM.
The same measure, in the same setting: under `N#Cc1ccc(NC(=O)N2CCn3nc(-c4cnc(F)c(Cl)c4)c(C(N)=O)c3C2)cc1F` [Compound 295, 2-(5-Chloro-6-fluoropyridin-3-yl)-N^5-(4-cyano-3-fluorophenyl)-6,7-dihydropyrazolo[1,5-a] pyrazine-3,5(4H)-dicarboxamide] stands 0.01 to 10 nM; under `N#Cc1ccc(NC(=O)N2CCn3nc(-c4cc(Cl)c5cncn5c4)c(C(N)=O)c3C2)cc1` [Compound 308, 2-(8-Chloroimidazo[1,5-a]pyridin-6-yl)-N-(4-cyanophenyl)-6,7-dihydropyrazolo[1,5-a]pyrazine-3,5(4H)-dicarboxamide], 0.01 to 10 nM; under `N#Cc1ccc(NC(=O)N2CCn3nc(-c4cc(Cl)c5ocnc5c4)c(C(N)=O)c3C2)cc1` [Compound 309, 2-(7-Chlorobenzo[d]oxazol-5-yl)-N^5-(4-cyanophenyl)-6,7-dihydropyrazolo[1,5-a]pyrazine-3,5(4H)-dicarboxamide], 0.01 to 10 nM.
As to `N#Cc1ccc(NC(=O)N2CCn3nc(-c4cc(Cl)c5[nH]ncc5c4)c(C(N)=O)c3C2)cc1` [Compound 315, 2-(7-Chloro-1H-indazol-5-yl)-N^5-(4-cyanophenyl)-6,7-dihydropyrazolo[1,5-a]pyrazine-3,5(4H)-dicarboxamide], the 50% inhibitory concentration (IC50) was in the range of 0.01 to 10 nM.
The same measure, in the same setting: under `N#Cc1ccc(NC(=O)N2Cc3c(C(N)=O)c(-c4ccc(F)c(Cl)c4)nn3[C@H](CF)C2)cc1F` [Compound A16, (S)-2-(3-Chloro-4-fluorophenyl)-N^5-(4-cyano-3-fluorophenyl)-7-(fluoromethyl)-6,7-dihydropyrazolo[1,5-a]pyrazine-3,5(4H)-dicarboxamide] stands 0.01 to 10 nM; under `N#Cc1ccc(NC(=O)N2Cc3c(C(N)=O)c(-c4ccc(F)c(Cl)c4)nn3[C@@H](CF)C2)cc1F` [Compound A17, (R)-2-(3-Chloro-4-fluorophenyl)-N^5-(4-cyano-3-fluorophenyl)-7-(fluoromethyl)-6,7-dihydropyrazolo[1,5-a]pyrazine-3,5(4H)-dicarboxamide], 0.01 to 10 nM; under `N#Cc1ccc(NC(=O)N2Cc3c(C(N)=O)c(-c4ccc(F)c(Cl)c4)nn3[C@H](C(F)F)C2)cc1` [Compound A20, (S)-2-(3-Chloro-4-fluorophenyl)-N^5-(4-cyanophenyl)-7-(difluoromethyl)-6,7-dihydropyrazolo[1,5-a]pyrazine-3,5(4H)-dicarboxamide], 0.01 to 10 nM.
For `N#Cc1ccc(NC(=O)N2Cc3c(C(N)=O)c(-c4ccc(F)c(Cl)c4)nn3[C@@H](C(F)F)C2)cc1` [Compound A21, (R)-2-(3-Chloro-4-fluorophenyl)-N^5-(4-cyanophenyl)-7-(difluoromethyl)-6,7-dihydropyrazolo[1,5-a]pyrazine-3,5(4H)-dicarboxamide], the half-inhibitory concentration (IC50) is 0.01 to 10 nM.
The same measure, in the same setting: with `CC1CN(C(N)=O)Cc2c(C(=O)NC(C)(C)C)c(-c3ccc(Cl)c(Cl)c3)nn21` (centres unmarked) [Compound A33, N-(tert-Butyl)-2-(3,4-dichlorophenyl)-7-methyl-6,7-dihydropyrazolo[1,5-a]pyrazine-3,5(4H)-dicarboxamide] the figure was 0.01 to 10 nM; with `N#CC1(c2ccc(NC(=O)N3CCn4nc(-c5ccc(F)c(Cl)c5)c(C(N)=O)c4C3)cc2)CC1` [Compound A54, 2-(3-Chloro-4-fluorophenyl)-N^5-(4-(1-cyanocyclopropyl)phenyl)-6,7-dihydropyrazolo[1,5-a]pyrazine-3,5(4H)-dicarboxamide], 0.01 to 10 nM.

The experiment is the same for the next values; noted with them: CK1ε (IC50, nM).
Consider `CCC1CN(C(=O)Nc2ccc(C#N)cc2)Cc2c(C(N)=O)c(-c3ccc(F)c(Cl)c3)nn21` (single isomer, unassigned) [Compound A68, 2-(3-Chloro-4-fluorophenyl)-N^5-(4-cyanophenyl)-7-ethyl-6,7-dihydropyrazolo[1,5-a]pyrazine-3,5(4H)-dicarboxamide], for which the IC50 lay in the range of 0.01 to 10 nM.

The same experiment, now with this note: read-out: CK1ε (IC50).
As for `CCC1CN(C(=O)Nc2ccc(C#N)cc2)Cc2c(C(N)=O)c(-c3ccc(F)c(Cl)c3)nn21` (single isomer, unassigned) [Compound A69, 2-(3-Chloro-4-fluorophenyl)-N^5-(4-cyanophenyl)-7-ethyl-6,7-dihydropyrazolo[1,5-a]pyrazine-3,5(4H)-dicarboxamide], the IC50 was 0.01 to 10 nM.
For `N#Cc1ccc(NC(=O)N2CCn3nc(-c4cnc(F)c(Cl)c4)c(C(N)=O)c3C2)cc1Cl` [Compound 296, N^5-(3-Chloro-4-cyanophenyl)-2-(5-chloro-6-fluoropyridin-3-yl)-6,7-dihydropyrazolo[1,5-a] pyrazine-3,5(4H)-dicarboxamide], the half-maximal inhibitory concentration (IC50) was in the range of 0.01 to 10 nM.
